Data as given in ChEMBL document CHEMBL3885881, “DrugMatrix”.

Species: Rattus norvegicus
Experiment: DrugMatrix - Regimen: Daily Repeat
Assay type: toxicity, organism-based, Sprague-Dawley
Design: regimen Daily Repeat, gender Male, age 6-8 weeks
Conditions: in vivo, po, route oral GAVAGE, vehicle 100 % WATER; for BASOPHIL / EOSINOPHIL / ERYTHROCYTE COUNT / HEMATOCRIT / HEMOGLOBIN / LEUKOCYTE COUNT / LYMPHOCYTE / MEAN CORPUSCULAR HEMOGLOBIN / MEAN CORPUSCULAR HEMOGLOBIN CONCENTRATION / MEAN CORPUSCULAR VOLUME / MONOCYTE / NEUTROPHIL / PLATELET COUNT: tissue Blood; for ALANINE AMINOTRANSFERASE / ALBUMIN / ALKALINE PHOSPHATASE / ASPARTATE AMINOTRANSFERASE / BLOOD UREA NITROGEN / CHLORIDE / CHOLESTEROL / CREATINE PHOSPHOKINASE / CREATININE / GLUCOSE / PHOSPHORUS / POTASSIUM / SODIUM / TOTAL BILIRUBIN / TOTAL PROTEIN: tissue Plasma
[1] = 0 mg/kg, 72 h, dose level Control, time 3 day
[2] = 0 mg/kg, 120 h, dose level Control, time 5 day
[3] = 4 mg/kg, 72 h, dose level Low, time 3 day
[4] = 4 mg/kg, 120 h, dose level Low, time 5 day

CCN(CC)CCOC(=O)C1(C2CCCCC2)CCCCC1 [DICYCLOMINE]
BASOPHIL [1]: 0% | EOSINOPHIL [1]: 0.5% | ERYTHROCYTE COUNT [1]: 5.8 x10E6/uL | HEMATOCRIT [1]: 35.07% | HEMOGLOBIN [1]: 14.12 G/DL | LEUKOCYTE COUNT [1]: 13.7 x10E3/uL | LYMPHOCYTE [1]: 82.33% | MEAN CORPUSCULAR HEMOGLOBIN [1]: 24.38 pg | MEAN CORPUSCULAR HEMOGLOBIN CONCENTRATION [1]: 40.28 G/DL | MEAN CORPUSCULAR VOLUME [1]: 60.52 fL | MONOCYTE [1]: 2.67% | NEUTROPHIL [1]: 14.5% | PLATELET COUNT [1]: 911.5 x10E3/uL | ALANINE AMINOTRANSFERASE [1]: 36.83 u/L | ALBUMIN [1]: 3.75 G/DL | ALKALINE PHOSPHATASE [1]: 399.83 u/L | ASPARTATE AMINOTRANSFERASE [1]: 66 u/L | BLOOD UREA NITROGEN [1]: 14.67 mg/dL | CHLORIDE [1]: 101.67 MEQ/L | CHOLESTEROL [1]: 66.33 mg/dL | CREATINE PHOSPHOKINASE [1]: 139.5 u/L | CREATININE [1]: 0.92 mg/dL | GLUCOSE [1]: 175 mg/dL | PHOSPHORUS [1]: 11.42 mg/dL | POTASSIUM [1]: 7.03 MEQ/L | SODIUM [1]: 148.5 MEQ/L | TOTAL BILIRUBIN [1]: 1.13 mg/dL | TOTAL PROTEIN [1]: 6.87 G/DL | BASOPHIL [2]: 0% | EOSINOPHIL [2]: 0.2% | ERYTHROCYTE COUNT [2]: 6.02 x10E6/uL | HEMATOCRIT [2]: 36.48% | HEMOGLOBIN [2]: 14.38 G/DL | LEUKOCYTE COUNT [2]: 12.34 x10E3/uL | LYMPHOCYTE [2]: 83% | MEAN CORPUSCULAR HEMOGLOBIN [2]: 23.92 pg | MEAN CORPUSCULAR HEMOGLOBIN CONCENTRATION [2]: 39.44 G/DL | MEAN CORPUSCULAR VOLUME [2]: 60.66 fL | MONOCYTE [2]: 3% | NEUTROPHIL [2]: 13.8% | PLATELET COUNT [2]: 1190.6 x10E3/uL | ALANINE AMINOTRANSFERASE [2]: 43 u/L | ALBUMIN [2]: 3.73 G/DL | ALKALINE PHOSPHATASE [2]: 393 u/L | ASPARTATE AMINOTRANSFERASE [2]: 62.33 u/L | BLOOD UREA NITROGEN [2]: 16.33 mg/dL | CHLORIDE [2]: 101.67 MEQ/L | CHOLESTEROL [2]: 65.5 mg/dL | CREATINE PHOSPHOKINASE [2]: 130.67 u/L | CREATININE [2]: 0.58 mg/dL | GLUCOSE [2]: 180.67 mg/dL | PHOSPHORUS [2]: 11.28 mg/dL | POTASSIUM [2]: 7.05 MEQ/L | SODIUM [2]: 148.17 MEQ/L | TOTAL BILIRUBIN [2]: 0.72 mg/dL | TOTAL PROTEIN [2]: 6.83 G/DL | BASOPHIL [3]: 0% | EOSINOPHIL [3]: 0.33% | ERYTHROCYTE COUNT [3]: 6.01 x10E6/uL | HEMATOCRIT [3]: 36.27% | HEMOGLOBIN [3]: 14.33 G/DL | LEUKOCYTE COUNT [3]: 12.73 x10E3/uL | LYMPHOCYTE [3]: 85.67% | MEAN CORPUSCULAR HEMOGLOBIN [3]: 23.9 pg | MEAN CORPUSCULAR HEMOGLOBIN CONCENTRATION [3]: 39.57 G/DL | MEAN CORPUSCULAR VOLUME [3]: 60.4 fL | MONOCYTE [3]: 2% | NEUTROPHIL [3]: 12% | PLATELET COUNT [3]: 1302.67 x10E3/uL | ALANINE AMINOTRANSFERASE [3]: 37.67 u/L | ALBUMIN [3]: 3.63 G/DL | ALKALINE PHOSPHATASE [3]: 354.67 u/L | ASPARTATE AMINOTRANSFERASE [3]: 62.33 u/L | BLOOD UREA NITROGEN [3]: 14 mg/dL | CHLORIDE [3]: 102.67 MEQ/L | CHOLESTEROL [3]: 65.33 mg/dL | CREATINE PHOSPHOKINASE [3]: 133.33 u/L | CREATININE [3]: 0.63 mg/dL | GLUCOSE [3]: 179.67 mg/dL | PHOSPHORUS [3]: 11.7 mg/dL | POTASSIUM [3]: 6.7 MEQ/L | SODIUM [3]: 150.67 MEQ/L | TOTAL BILIRUBIN [3]: 0.53 mg/dL | TOTAL PROTEIN [3]: 6.6 G/DL | BASOPHIL [4]: 0% | EOSINOPHIL [4]: 0.33% | ERYTHROCYTE COUNT [4]: 6.36 x10E6/uL | HEMATOCRIT [4]: 39.27% | HEMOGLOBIN [4]: 15.3 G/DL | LEUKOCYTE COUNT [4]: 12.77 x10E3/uL | LYMPHOCYTE [4]: 87.33% | MEAN CORPUSCULAR HEMOGLOBIN [4]: 24.03 pg | MEAN CORPUSCULAR HEMOGLOBIN CONCENTRATION [4]: 38.97 G/DL | MEAN CORPUSCULAR VOLUME [4]: 61.73 fL | MONOCYTE [4]: 2.67% | NEUTROPHIL [4]: 9.67% | PLATELET COUNT [4]: 1082 x10E3/uL | ALANINE AMINOTRANSFERASE [4]: 45 u/L | ALBUMIN [4]: 3.6 G/DL | ALKALINE PHOSPHATASE [4]: 424.67 u/L | ASPARTATE AMINOTRANSFERASE [4]: 67.67 u/L | BLOOD UREA NITROGEN [4]: 15.67 mg/dL | CHLORIDE [4]: 104.33 MEQ/L | CHOLESTEROL [4]: 65 mg/dL | CREATINE PHOSPHOKINASE [4]: 107.33 u/L | CREATININE [4]: 0.6 mg/dL | GLUCOSE [4]: 195 mg/dL | PHOSPHORUS [4]: 12.53 mg/dL | POTASSIUM [4]: 6.67 MEQ/L | SODIUM [4]: 151 MEQ/L | TOTAL BILIRUBIN [4]: 0.63 mg/dL | TOTAL PROTEIN [4]: 6.53 G/DL
